Test results published in patent publication US20140329858A1, “Cyclic Urea Derivatives As Androgen Receptor Antagonists” (priority 2011, published 2014).

Each compound was assayed on Vcap cells (assay: Dihydrotestosterone (DHT) mediated XTT cell proliferation assay for screening AR antagonists using Vcap cells). Details: Homo sapiens, 240 h, in the presence of 0.2 nM DHT, XTT readout on Day 10, IC50 curves from 8 concentrations.
Type: cell-based
Experimental: Dihydrotestosterone (DHT) Mediated XTT Cell Proliferation Assay for Screening AR Antagonists Using Vcap cells
The Vcap cells (4×10^6 cells) were seeded in a T-75 flask containing DMEM with 15% FBS. After 72 hours, the media was removed; the cells were washed once and replaced with phenol red free DMEM containing 8% charcoal stripped serum. Then, the cells were starved in phenol red free DMEM with 8% charcoal stripped serum for 5 days. Following the starvation, the cells were harvested and seeded in 96 well plates (10×10^3 cells per well) in phenol red free DMEM with 8% charcoal stripped serum (Day 0). The cells were allowed to settle and on Day 4 they were treated with different concentrations of the compound (30 μM, 10 μM, 1 μM, 500 nM, 100 nM, 10 nM, 1 nM, 0.1 nM) in the presence of 0.2 nM DHT. DHT alone and a DMSO controls were also included. All treatments were done in triplicate. The drugs were replenished on Day 7 and the cells were allowed to grow for another 72 hours. On Day 10, the experiment was terminated by adding the XTT reagent (2,3-bis[2-methoxy-4-notro-5-sulfophenyl]-2H-tetrazolium-5-caboxyanilide inner salt) dissolved in Phenol red free DMEM without serum. The cells with the XTT reagents were incubated inside the CO2 incubator for 3-4 hours for color development; after which the readings were taken at […] using a spectramax Gemini plate reader.
Data fitting: The IC50 curves for the 8 compound concentrations were calculated with GraphPad Prism software using the sigmoidal dose-response function. (Graphpad Software, San Diego, Calif., USA).
Compound `Cc1cc(N2C(=O)N(c3ccc(C#N)c(C(F)(F)F)c3)[C@@H]3COCC[C@H]32)ccn1` (racemic) [Example 72, Trans-4-(1-(2-methylpyridin-4-yl)-2-oxohexahydropyrano[3,4-d]imidazol-3(2H)-yl)-2-(trifluoromethyl)benzonitrile (±)] has an IC50 greater than 10000 nM.
For `CNC(=O)c1ccc(N2C(=O)N(c3ccc(C#N)c(C(F)(F)F)c3)[C@@H]3CCOC[C@H]32)cc1F` (racemic) [Example 73, Trans-4-(1-(4-Cyano-3-(trifluoromethyl)phenyl)-2-oxohexahydropyrano[3,4-d]imidazol-3(2H)-yl)-2-fluoro-N-methylbenzamide (±)], the IC50 was 2550 nM.
In the case of `N#Cc1ccc(N2C(=O)N(c3ccc(C(N)=O)c(F)c3)[C@@H]3CCOC[C@H]32)cc1C(F)(F)F` (racemic) [Example 76, Trans-4-(3-(4-cyano-3-(trifluoromethyl)phenyl)-2-oxohexahydropyrano[3,4-d]imidazol-1(6H)-yl)-2-fluorobenzamide (±)], the IC50 is reported as 2540 nM.
`Cc1cc(N2C(=O)N(c3ccc(C#N)c(C(F)(F)F)c3)[C@H]3COCC[C@@H]32)ccc1C(N)=O` (racemic) [Example 79, Trans-4-(3-(4-cyano-3-(trifluoromethyl)phenyl)-2-oxohexahydropyrano[3,4-c]imidazol-1(6H)-yl)-2-methylbenzamide (±)] gave an IC50 of 4330 nM.
`CNC(=O)c1ccc(N2C(=O)N(c3ccc(C#N)c(C(F)(F)F)c3)[C@@H]3CCCCC[C@H]32)cc1F` (racemic) [Example 80, Trans-4-(3-(4-cyano-3-(trifluoromethyl)phenyl)-2-oxooctahydrocyclohepta[d]imidazol-1(2H)-yl)-2-fluoro-N-methylbenzamide (±)] showed an IC50 of 254 nM.
`CNC(=O)c1ccc(N2C(=O)N(c3ccc(C#N)c(C(F)(F)F)c3)[C@@H]3CCC(=O)C[C@H]32)cc1F` (racemic) [Example 81, Trans-4-(3-(4-cyano-3-(trifluoromethyl)phenyl)-2,6-dioxooctahydro-1H-benzo[d]imidazol-1-yl)-2-fluoro-N-methylbenzamide (±)] gave an IC50 of 702 nM.
Work on `CNC(=O)c1ccc(N2C(=O)N(c3ccc(C#N)c(C(F)(F)F)c3)[C@@H]3CCC(O)C[C@H]32)cc1F` (mixture of isomers) [Example 82, Trans-4-(3-(4-cyano-3-(trifluoromethyl)phenyl)-6-hydroxy-2-oxooctahydro-1H-benzo[d]imidazol-1-yl)-2-fluoro-N-methylbenzamide (±)] yielded an IC50 of 583 nM.
Compound `CNC(=O)c1ccc(N2C(=O)N(c3ccc(C#N)c(C(F)(F)F)c3)[C@@H]3CC=CC[C@H]32)cc1F` (racemic) [Example 83, Trans-4-(3-(4-cyano-3-(trifluoromethyl)phenyl)-2-oxo-2,3,3a,4,7,7a-hexahydro-1H-benzo[c]imidazol-1-yl)-2-fluoro-N-methylbenzamide (±)] has an IC50 of 148 nM.
Compound `CNC(=O)c1ccc(N2C(=O)N(c3ccc(C#N)c(C(F)(F)F)c3)[C@@H]3CCC=C[C@H]32)cc1F` (racemic) [Example 84, trans-4-(3-(4-cyano-3-(trifluoromethyl)phenyl)-2-oxo-2,3,3a,4,5,7a-hexahydro-1H-benzo[d]imidazol-1-yl)-2-fluoro-N-methylbenzamide (±)] has an IC50 of 161 nM.
`CNC(=O)c1ccc(N2C(=O)N(c3ccc(C#N)c(C(F)(F)F)c3)[C@@H]3CC(OC)CC[C@H]32)cc1F` (mixture of isomers) [Example 85, Trans-4-(3-(4-cyano-3-(trifluoromethyl)phenyl)-5-methoxy-2-oxooctahydro-1H-benzo[d]imidazol-1-yl)-2-fluoro-N-methylbenzamide (±)] gave an IC50 of 2620 nM.
In the case of `CNC(=O)c1ccc(N2C(=O)N(c3ccc(C#N)c(C(F)(F)F)c3)[C@H]3C=CCC[C@@H]32)cc1F` (racemic) [Example 86, trans-4-(3-(4-cyano-3-(trifluoromethyl)phenyl)-2-oxo-2,3,3a,6,7,7a-hexahydro-1H-benzo[c]imidazol-1-yl)-2-fluoro-N-methylbenzamide (±)], the IC50 is reported as 43 nM.
`CNC(=O)c1ccc(C2=C[C@@H]3[C@@H](CC2)N(c2ccc(C#N)c(C(F)(F)F)c2)C(=O)N3C)cc1F` (racemic) [Example 88, Trans-4-(1-(4-cyano-3-(trifluoromethyl)phenyl)-3-methyl-2-oxo-2,3,3a,6,7,7a-hexahydro-1H-benzo[d]imidazol-5-yl)-2-fluoro-N-methylbenzamide (±)] gave an IC50 of 218 nM.
`CNC(=O)c1ccc(C2=C[C@H]3[C@@H](CC2)N(c2ccc(C#N)c(C(F)(F)F)c2)C(=O)N3C)cc1F` (racemic) [Example 89, Cis-4-(1-(4-cyano-3-(trifluoromethyl)phenyl)-3-methyl-2-oxo-2,3,3a,6,7,7a-hexahydro-1H-benzo[d]imidazol-5-yl)-2-fluoro-N-methylbenzamide (±)] gave an IC50 of 1000 nM.
`CN1C(=O)N(c2ccc(C#N)c(C(F)(F)F)c2)[C@@H]2CCC(c3ccccc3)=C[C@H]21` (racemic) [Example 91, Trans-4-3-methyl-2-oxo-5-phenyl-2,3,3a,6,7,7a-hexahydro-1H-benzo[d]imidazol-1-yl)-2-(trifluoromethyl)benzonitrile (±)] showed an IC50 of 323 nM.

Same assay, conditions: in the presence of 0.2 nM DHT, XTT readout on Day 10, IC50 curves from 8 concentrations
Compound `CNC(=O)c1ccc(N2C(=O)N(c3ccc(C#N)c(C(F)(F)F)c3)[C@@H]3CCCC[C@H]32)cc1F` (relative stereo) [Example 1a, Trans-4-{3-[4-cyano-3-(trifluoromethyl)phenyl]-2-oxo-octahydro-1H-1,3-benzodiazol-1-yl}-2-fluoro-N-Methylbenzamide (+)] has an IC50 greater than 10000 nM.
Compound `CNC(=O)c1ccc(N2C(=O)N(c3ccc(C#N)c(C(F)(F)F)c3)[C@@H]3CCCC[C@H]32)cc1F` (relative stereo) [Example 1b, Trans-4-{3-[4-cyano-3-(trifluoromethyl)phenyl]-2-oxo-octahydro-1H-1,3-benzodiazol-1-yl}-2-fluoro-N-Methylbenzamide (−)] has an IC50 of 90.5 nM.
In the case of `N#Cc1ccc(N2C(=O)N(c3ccc(C#N)c(C(F)(F)F)c3)[C@@H]3CCCC[C@H]32)cc1C(F)(F)F` (relative stereo) [Example 2a, Trans-4,4′-(2-oxohexahydro-1H-benzo[d]imidazole-1,3(2H)-diyl)bis(2-(trifluoromethyl)benzonitrile) (−)], the IC50 is reported as 231 nM.
Compound `N#Cc1ccc(N2C(=O)N(c3ccc(C#N)c(C(F)(F)F)c3)[C@@H]3CCCC[C@H]32)cc1C(F)(F)F` (relative stereo) [Example 2b, Trans-4,4′-(2-oxohexahydro-1H-benzo[d]imidazole-1,3(2H)-diyl)bis(2-(trifluoromethyl)benzonitrile) (+)] has an IC50 greater than 10000 nM.
Work on `N#Cc1ccc(N2C(=O)N(c3ccccc3)[C@@H]3CCCC[C@H]32)cc1C(F)(F)F` (relative stereo) [Example 5a, Trans-4-(2-oxo-3-phenyloctahydro-1H-benzo[d]imidazol-1-yl)-2-(trifluoromethyl)benzonitrile (+)] yielded an IC50 of 1760 nM.
For `N#Cc1ccc(N2C(=O)N(c3ccccc3)[C@@H]3CCCC[C@H]32)cc1C(F)(F)F` (relative stereo) [Example 5b, Trans-4-(2-oxo-3-phenyloctahydro-1H-benzo[d]imidazol-1-yl)-2-(trifluoromethyl)benzonitrile (−)], the IC50 was 1050 nM.
`N#Cc1ccc(N2C(=O)N(c3ccnc(F)c3)[C@@H]3CCCC[C@H]32)cc1C(F)(F)F` (relative stereo) [Example 10a, Trans-4-(3-(2-fluoropyridin-4-yl)-2-oxooctahydro-1H-benzo[d]imidazol-1-yl)-2-(trifluoromethyl)benzonitrile (+)] gave an IC50 of 2550 nM.
`N#Cc1ccc(N2C(=O)N(c3ccnc(F)c3)[C@@H]3CCCC[C@H]32)cc1C(F)(F)F` (relative stereo) [Example 10b, Trans-4-(3-(2-fluoropyridin-4-yl)-2-oxooctahydro-1H-benzo[d]imidazol-1-yl)-2-(trifluoromethyl)benzonitrile (−)] was tested, and the IC50 was 280 nM.
`CNC(=O)c1ccc(N2C(=O)N(c3ccc(C#N)c(C(F)(F)F)c3)[C@@H]3COCC[C@H]32)cc1F` (relative stereo) [Example 71a, Trans-4-{3-[4-Cyano-3-(trifluoromethyl)phenyl]-2-oxo-octahydropyrano[3,4-d]imidazolidin-1-yl}-2-fluoro-N-methylbenzamide (+)] gave an IC50 greater than 10000 nM.
In the case of `CNC(=O)c1ccc(N2C(=O)N(c3ccc(C#N)c(C(F)(F)F)c3)[C@@H]3COCC[C@H]32)cc1F` (relative stereo) [Example 71b, Trans-4-{3-[4-Cyano-3-(trifluoromethyl)phenyl]-2-oxo-octahydropyrano[3,4-d]imidazolidin-1-yl}-2-fluoro-N-methylbenzamide (−)], the IC50 is reported as 379 nM.
`CNC(=O)c1ccc(N2C(=O)N(c3ccc(C#N)c(C(F)(F)F)c3)[C@@H]3CCCCC[C@H]32)cc1F` (relative stereo) [Example 80a, Trans-4-(3-(4-cyano-3-(trifluoromethyl)phenyl)-2-oxooctahydrocyclohepta[d]imidazol-1(2H)-yl)-2-fluoro-N-methylbenzamide (−)] was tested, and the IC50 was 93.7 nM.
For `CNC(=O)c1ccc(N2C(=O)N(c3ccc(C#N)c(C(F)(F)F)c3)[C@@H]3CCCCC[C@H]32)cc1F` (relative stereo) [Example 80b, Trans-4-(3-(4-cyano-3-(trifluoromethyl)phenyl)-2-oxooctahydrocyclohepta[d]imidazol-1(2H)-yl)-2-fluoro-N-methylbenzamide (+)], the IC50 was 2180 nM.
